Holding throughout (assay): relative viability (nuclei count vs DMSO), 5 days (fraction); higher = more cells survive
Compound in the assay “Veliparib + Foretinib”: C[C@]1(c2nc3c(C(N)=O)cccc3[nH]2)CCCN1 [Veliparib] + COc1cc2c(Oc3ccc(NC(=O)C4(C(=O)Nc5ccc(F)cc5)CC4)cc3F)ccnc2cc1OCCCN1CCOCC1 [Foretinib] (partner 0.25 µM)
The essentials:
(§1)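 Lung cancer cell lines in 1536-well plates were dosed by pin tool the day after seeding, either with one drug alone or with a fixed anchor-drug dose plus five library-drug doses (not always all listed) in √10 steps. After 5 days, cells were fixed and their nuclei stained in one step (final 0.05% Triton X-100, 1% formaldehyde, 1 ug/ml Hoechst), then counted on 4× images. Relative viability is the nuclei count in treated wells divided by that in vehicle wells. Values are medians of duplicate plates.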

Compound in assay [1]: COC1=CC=C(C=C1)CN2C=CC3=C2C=C(C=C3)C(=O)NO + Cc1cc(Nc2cc(N3CCN(C)CC3)nc(Sc3ccc(NC(=O)C4CC4)cc3)n2)n[nH]1 [Tozasertib] (partner 0.1 µM)
The essentials: as §1

Compound in the assay “Veliparib + Bortezomib”: C[C@]1(c2nc3c(C(N)=O)cccc3[nH]2)CCCN1 [Veliparib] + CC(C)C[C@H](NC(=O)[C@H](Cc1ccccc1)NC(=O)c1cnccn1)B(O)O [Bortezomib] (partner 0.002 µM)
The essentials: as §1

Compound in the assay “Veliparib + Linsitinib”: C[C@]1(c2nc3c(C(N)=O)cccc3[nH]2)CCCN1 [Veliparib] + C[C@]1(O)C[C@@H](c2nc(-c3ccc4ccc(-c5ccccc5)nc4c3)c3c(N)nccn32)C1 [Linsitinib] (partner 1 µM)
The essentials: as §1

On to NCI-H2087, for which the relative viability came out at 1.04 in the assay with Veliparib + Foretinib (first compound 0.02 µM); 1.04 with Veliparib + Foretinib (first compound 0.06325 µM); 0.999 with Veliparib + Foretinib (first compound 0.2 µM); 1.16 in the assay with Veliparib + Foretinib (first compound 0.6325 µM); 1.08 with Veliparib + Foretinib (first compound 2 µM); 0.253 in assay [1] (first compound 0.08 µM). For the same cell line, the relative viability in assay [1] (first compound 0.253 µM) came out at 0.293; in assay [1] (first compound 0.8 µM), 0.246; in assay [1] (first compound 2.53 µM) it was 0.294; in assay [1] (first compound 8 µM), 0.234; with Veliparib + Bortezomib (first compound 0.02 µM) it was 0.563; in the assay with Veliparib + Bortezomib (first compound 0.06325 µM), 0.819. Besides, the relative viability with Veliparib + Bortezomib (first compound 0.2 µM) turned out to be 0.81; with Veliparib + Bortezomib (first compound 0.6325 µM) it was 0.709; with Veliparib + Bortezomib (first compound 2 µM), 0.838; with Veliparib + Linsitinib (first compound 0.02 µM), 1.01; in the assay with Veliparib + Linsitinib (first compound 0.06325 µM), 0.903; in the assay with Veliparib + Linsitinib (first compound 0.2 µM), 1.02. For the same cell line, the relative viability came out at 0.898 with Veliparib + Linsitinib (first compound 0.6325 µM) and 0.999 in the assay with Veliparib + Linsitinib (first compound 2 µM).

Take NCI-H2126: the relative viability with Veliparib + Foretinib (first compound 0.02 µM) turned out to be 1.19; with Veliparib + Foretinib (first compound 0.06325 µM) it was 1.2; in the assay with Veliparib + Foretinib (first compound 0.2 µM), 1.26; with Veliparib + Foretinib (first compound 0.6325 µM) it was 1.31; in the assay with Veliparib + Foretinib (first compound 2 µM), 1.1; in assay [1] (first compound 0.08 µM), 0.736. Further, the relative viability in assay [1] (first compound 0.253 µM) is 0.801; in assay [1] (first compound 0.8 µM) it was 0.856; in assay [1] (first compound 2.53 µM) it was 0.856; in assay [1] (first compound 8 µM), 0.754; in the assay with Veliparib + Bortezomib (first compound 0.02 µM), 1.03; with Veliparib + Bortezomib (first compound 0.06325 µM), 1.07. Also, the relative viability with Veliparib + Bortezomib (first compound 0.2 µM) was determined as 1.18; in the assay with Veliparib + Bortezomib (first compound 0.6325 µM) it was 1.14; with Veliparib + Bortezomib (first compound 2 µM), 1.06; with Veliparib + Linsitinib (first compound 0.02 µM), 0.715; with Veliparib + Linsitinib (first compound 0.06325 µM) it was 0.668; with Veliparib + Linsitinib (first compound 0.2 µM) it was 0.701. For the same cell line, the relative viability with Veliparib + Linsitinib (first compound 0.6325 µM) is 0.661; with Veliparib + Linsitinib (first compound 2 µM), 0.733.

For NCI-H2228, the relative viability with Veliparib + Foretinib (first compound 0.02 µM) is 0.794; with Veliparib + Foretinib (first compound 0.06325 µM), 0.731; with Veliparib + Foretinib (first compound 0.2 µM), 0.845; in the assay with Veliparib + Foretinib (first compound 0.6325 µM), 0.737; in the assay with Veliparib + Foretinib (first compound 2 µM), 0.957; in assay [1] (first compound 0.253 µM), 0.229. Moreover, the relative viability in assay [1] (first compound 0.8 µM) is 0.291; in assay [1] (first compound 2.53 µM), 0.228; in assay [1] (first compound 8 µM) it was 0.185; with Veliparib + Bortezomib (first compound 0.02 µM), 0.924; with Veliparib + Bortezomib (first compound 0.06325 µM), 0.844; with Veliparib + Bortezomib (first compound 0.2 µM) it was 1. Also, the relative viability was 0.843 with Veliparib + Bortezomib (first compound 0.6325 µM); 0.999 with Veliparib + Bortezomib (first compound 2 µM); 0.552 in the assay with Veliparib + Linsitinib (first compound 0.02 µM); 0.601 in the assay with Veliparib + Linsitinib (first compound 0.06325 µM); 0.681 in the assay with Veliparib + Linsitinib (first compound 0.2 µM); 0.572 in the assay with Veliparib + Linsitinib (first compound 0.6325 µM). Further, the relative viability in the assay with Veliparib + Linsitinib (first compound 2 µM) was 0.726.

NCI-H2347: the relative viability with Veliparib + Foretinib (first compound 0.02 µM) was 0.977; with Veliparib + Foretinib (first compound 0.06325 µM) it was 0.545; with Veliparib + Foretinib (first compound 0.2 µM), 0.763; with Veliparib + Foretinib (first compound 0.6325 µM) it was 0.802; with Veliparib + Foretinib (first compound 2 µM), 0.844; in assay [1] (first compound 0.08 µM), 0.463. Also, the relative viability in assay [1] (first compound 0.253 µM) was 0.415; in assay [1] (first compound 0.8 µM) it was 0.613; in assay [1] (first compound 2.53 µM), 0.611; in assay [1] (first compound 8 µM), 0.503; with Veliparib + Bortezomib (first compound 0.02 µM) it was 1.13; with Veliparib + Bortezomib (first compound 0.06325 µM), 0.687. The relative viability in the assay with Veliparib + Bortezomib (first compound 0.2 µM) amounted to 1.09; with Veliparib + Bortezomib (first compound 0.6325 µM), 1.21; in the assay with Veliparib + Bortezomib (first compound 2 µM), 0.959; with Veliparib + Linsitinib (first compound 0.02 µM), 0.999; in the assay with Veliparib + Linsitinib (first compound 0.06325 µM), 0.831; in the assay with Veliparib + Linsitinib (first compound 0.2 µM), 0.912. Further, the relative viability with Veliparib + Linsitinib (first compound 0.6325 µM) was 0.896; with Veliparib + Linsitinib (first compound 2 µM) it was 0.947.

For the cell line NCI-H2405, the relative viability with Veliparib + Foretinib (first compound 0.02 µM) worked out at 1.09; with Veliparib + Foretinib (first compound 0.06325 µM), 0.937; with Veliparib + Foretinib (first compound 0.2 µM), 1.08; in the assay with Veliparib + Foretinib (first compound 0.6325 µM), 1.03; with Veliparib + Foretinib (first compound 2 µM), 1.07; in assay [1] (first compound 0.08 µM), 0.523. Moreover, the relative viability turned out to be 0.807 in assay [1] (first compound 0.253 µM); 0.716 in assay [1] (first compound 0.8 µM); 0.689 in assay [1] (first compound 2.53 µM); 0.656 in assay [1] (first compound 8 µM); 0.96 in the assay with Veliparib + Bortezomib (first compound 0.02 µM); 0.858 with Veliparib + Bortezomib (first compound 0.06325 µM). Further, the relative viability is 0.978 with Veliparib + Bortezomib (first compound 0.2 µM); 0.988 with Veliparib + Bortezomib (first compound 0.6325 µM); 0.93 with Veliparib + Bortezomib (first compound 2 µM); 0.938 with Veliparib + Linsitinib (first compound 0.06325 µM); 1.01 with Veliparib + Linsitinib (first compound 0.2 µM); 0.923 with Veliparib + Linsitinib (first compound 0.6325 µM). In the assay with Veliparib + Linsitinib (first compound 2 µM), the relative viability is 0.885.

With NCI-H3122, the relative viability with Veliparib + Foretinib (first compound 0.02 µM) came out at 1; with Veliparib + Foretinib (first compound 0.06325 µM) it was 0.926; with Veliparib + Foretinib (first compound 0.2 µM) it was 0.912; in the assay with Veliparib + Foretinib (first compound 0.6325 µM), 0.943; with Veliparib + Foretinib (first compound 2 µM) it was 0.966; in assay [1] (first compound 0.253 µM), 0.327. Further, the relative viability in assay [1] (first compound 0.8 µM) is 0.397; in assay [1] (first compound 2.53 µM), 0.352; in assay [1] (first compound 8 µM), 0.382; with Veliparib + Bortezomib (first compound 0.02 µM), 1.01; in the assay with Veliparib + Bortezomib (first compound 0.06325 µM) it was 0.99; with Veliparib + Bortezomib (first compound 0.2 µM), 0.968. The relative viability with Veliparib + Bortezomib (first compound 0.6325 µM) was determined as 0.998; with Veliparib + Bortezomib (first compound 2 µM), 0.938; with Veliparib + Linsitinib (first compound 0.02 µM) it was 1.04; in the assay with Veliparib + Linsitinib (first compound 0.06325 µM) it was 1.01; in the assay with Veliparib + Linsitinib (first compound 0.2 µM), 0.983; with Veliparib + Linsitinib (first compound 0.6325 µM), 1.04. The relative viability with Veliparib + Linsitinib (first compound 2 µM) is 1.06.

The values above are taken from the supplement of paper PMC10307832.
